Measured values taken from patent US9074163B2, “Targeted performance of hypohalite systems thereof” (The Clorox Company, priority 2012, dated 2015).

Assay: percentage initial hypochlorite remaining as a function of time after mixing oxidant with reductant
Type: physicochemical
Settings: any pH below 12
Source text: The amount of available halogen oxidant in the composition may be determined by placing samples of the composition into about 50 milliliters of distilled water, followed by addition of about 10 milliliters of a 10 wt % solution of potassium iodide and addition of about 10 milliliters of a 10 volume % solution of sulfuric acid, the resulting mixture being well stirred. The resulting yellow to brown solution, whose color is the result of oxidation of free iodine ion (I′) to molecular iodine (I2), is then volumetrically titrated to an essentially colorless endpoint by addition of standardized 0.1 Molar sodium thiosulfate (Na2S2O3) titrant. […] Stability results are then expressed by repeated assays over time using identically prepared samples resulting from the same composition, normalized to 100 percent representative of the starting available chlorine measured initially.
Alternatively, at lower concentrations of hypochlorite, generally below about 2,000 ppm or 0.2 wt %, spectroscopic measurement of the absorption of aqueous solutions may be used to monitor the concentration, and resulting changes, of the hypochlorous acid species in solution. […] By use of controls, the relative level of hypochlorite can then be monitored and calculated by measuring absorbance of solutions by means of a suitable instrument, such as a spectrophotometer. […]

**Q.** For `O=C(O)CN(CCN(CC(=O)O)CC(=O)O)CC(=O)O` [EDTA, ethylene diamine tetra-acetic acid], which “reaction of reductant with hypochlorite (quenching rate)” value is on record?
**A.** The value was “reacts almost instantly”.
